{
  "source": "patent US20140024716A1",
  "about": "“Composition Comprising S-Allyl-L-Cysteine as Active Ingredient for Preventing or Treating Gastrointestinal Disorders” (PHARMAKING CO., LTD., priority 2009, published 2014)",
  "key": {"[1]": {"design": "species or system C57BL/6 mice", "details": "mouse, in vivo", "experimental": "S-allyl-L-Cysteine (SAC) was purchased from TCI Chemical Co. (Tokyo, Japan). Helicobacter pylori was American Type Culture Collection (ATCC) 43504 (cagA+, vacA s1-ml type) and cultured in a Mueller Hinton-Agar broth at 37° C. for 48 hours, under 5% CO2 microaerophilic conditions with a concentration of 1×10^9 CFU/ml.\n8-week old male specific pathogen free (SPF) C57BL/6 mice were used. Weights of the mice were measured in the Animal Lab, Department of Pathology, the College of Veterinary Medicine, Kyungbook National University. Then, the mice were classified into 4 groups and bred such that average weights of each group are similar to each other. The mice were acclimated and bred in the Animal Lab, Department of Pathology, the College of Veterinary Medicine, Kyungbook National University at a temperature of 22±3° C., at a relative humidity of 50±10%, with light for 12 hours (light turned on at 08:00 and light turned off at 20:00) by an automatic temperature and humidity control system. Other environments for breeding which might influence the test for the entire test period were not considered for use. […]\nWeights of male C57BL/6 mice infected with Helicobacter pylori ere measured three times a week for the entire 10-week test period to observe weight changes of the mice."}, "TNF-α": {"test_system": "TNF-α", "experiment": "Serum TNF-α in Helicobacter pylori-infected mice", "format": "in vivo, C57BL/6 mice", "details": "SAC1 and SAC2 groups (200 and 400 mg/kg SAC), p<0.09", "experimental": "(§1) 8-week old male C57BL/6 mice were classified into 4 groups, i.e., a positive control group (to which Helicobacter pylori was administered; PC), a negative control group (to which saline was administered; NC), experimental group 1 (to which Helicobacter pylori and 200 mg/kg of SAC were administered; SAC1), and experimental group 2 (to which Helicobacter pylori and 400 mg/kg of SAC were administered; SAC2). Each group had 10 mice. White powdered SAC was diluted in tap water to concentrations of 20 mg/mL and 40 mg/mL and 10 μl/g (body weight) of the diluted SAC was orally administered to the mice of the SAC1 and SAC2 groups three times a week for 10 weeks. The mice were given free access to tap water for the entire test period. The Helicobacter pylori was collected with saline to a concentration of 1×10^9 CFU/mL, and 0.2 mL of the diluted Helicobacter pylori was orally administered to each mouse for 8 weeks from 2 weeks after SAC administration. […]\nIn order to observe the effect of SAC on an inflammation factor of TNF-α in serum, a commercially available mouse TNF-α antibody analysis kit Microplate (R&D systems Inc., USA) was used and concentrations of TNF-α in serum of mice were measured according to the manuals of the kit."}, "Helicobacter pylori": {"test_system": "Helicobacter pylori", "experiment": "Histological change of stomach caused by Helicobacter pylori (H&E staining)", "format": "in vivo, C57BL/6 mice", "experimental": "as §1, with “administration. The mice were fasted for 8 hours before the infection, and 0.15 mL of 0.2 M sodium bicarbonate (NaHCO3) was administered to each mouse 10 minutes before the administration of Helicobacter pylori in order to neutralize acidified stomach due to the fasting. The same amount of saline instead of the infectious substances was administered into the NC group. The mice of all groups were fed with a normal diet. After a 10-week test period, autopsies were performed on all mice, and samples of blood and internal organs were collected for tissue pathological analyses.” for “administration.”\nA stomach sample was fixed with 10% formalin and a paraffin block was formed. […] In addition, the number of eosinophils was checked from a region where the esophagus and stomach join and counted from three regions of the stomach, i.e., cardia, gastric pit, and gastric crypt of lamina propria. The number of mitotic figures was counted from two regions selected from the entire antrum from cardia to pylorus. Thus two samples were obtained from each animal and evaluated with a 400× magnification, and an average value of each group was calculated."}},
  "note": "“Also recorded” adds a separate entry of the source. Read-outs that look alike come from different tables or passages of the source.",
  "data": [
    {"smiles": "C=CCSC[C@H](N)C(=O)O", "note": "[SAC, S-allyl-L-cysteine]", "values": [
      {"measurement": "weight increase rate less than the PC group by", "setting": "[1]; 200 mg/kg", "result": 2, "unit": "%"},
      {"measurement": "weight increase rate less than the PC group by", "setting": "[1]; 400 mg/kg", "result": 0.2, "unit": "%"},
      {"measurement": "serum TNF-α versus PC group", "setting": "TNF-α", "result": "reduced; also recorded: less than that of the PC group"},
      {"measurement": "number of eosinophils in stomach versus PC group", "setting": "Helicobacter pylori; SAC1 and SAC2 groups (200 and 400 mg/kg SAC)", "result": "significantly reduced; also recorded: less than that of the PC group"},
      {"measurement": "number of eosinophils in stomach versus PC group", "setting": "Helicobacter pylori; SAC1 group (200 mg/kg SAC), p<0.05", "result": "significantly less than that of the PC group"},
      {"measurement": "number of mitotic figures", "setting": "Helicobacter pylori; SAC2 group (400 mg/kg SAC)", "result": "slightly reduced"}
    ]}
  ]
}
